The test system of data set [1] is Panc02.13 cells expressing the YAPS6A mutant. In words: 3D spheroid growth assay, Panc02.13 cells expressing YAPS6A. The class given is cell-based, human. Particulars: YAP activity increased.
For data set [2], the target named is T1, ABCG2 (Homo sapiens, UniProt Q9UNQ0).
T1 sequence (Q9UNQ0 1-655): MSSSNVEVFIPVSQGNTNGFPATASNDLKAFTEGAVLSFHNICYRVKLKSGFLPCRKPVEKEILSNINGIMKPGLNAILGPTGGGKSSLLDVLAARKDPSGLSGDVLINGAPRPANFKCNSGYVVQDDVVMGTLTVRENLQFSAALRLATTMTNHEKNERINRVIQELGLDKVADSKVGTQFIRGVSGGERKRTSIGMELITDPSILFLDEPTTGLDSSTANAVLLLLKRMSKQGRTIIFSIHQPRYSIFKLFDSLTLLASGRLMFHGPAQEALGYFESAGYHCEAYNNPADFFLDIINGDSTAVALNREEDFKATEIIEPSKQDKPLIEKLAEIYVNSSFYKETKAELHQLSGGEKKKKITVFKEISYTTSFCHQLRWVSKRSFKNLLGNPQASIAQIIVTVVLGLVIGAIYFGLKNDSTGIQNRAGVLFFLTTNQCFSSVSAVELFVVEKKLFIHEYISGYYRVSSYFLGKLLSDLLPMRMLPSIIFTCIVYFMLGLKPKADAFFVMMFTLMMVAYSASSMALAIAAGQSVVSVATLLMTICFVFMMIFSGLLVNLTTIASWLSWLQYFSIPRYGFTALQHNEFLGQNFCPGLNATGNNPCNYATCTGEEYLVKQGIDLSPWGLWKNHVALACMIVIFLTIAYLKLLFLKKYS
Conditions: Cusatis and Sparreboom, 2008; cited from earlier work.

For data set [3], the system named is Panc02.13 cells. Put plainly: 3D spheroid growth assay, Panc02.13 (GFP/parental) cells. Conditions: Hippo-YAP pathway active.
Procedure: Cancer cell lines were seeded at a 5×10^3 cells per well in a 96-well ultra-low adherence plates (Costar) and briefly spun down at 1000 rpm for 5 minutes. After 2 days, cells were treated with small molecule inhibitors at varying concentrations. Growth of spheroids was monitored using live cell imaging every 2-3 hours for 4-7 days in the Incucyte FLR™ system (Essen) or as end point assay using CellTiter-Glo™ luminescent cell viability assay (Promega).
A dose response curve for each inhibitor is calculated based on control (no inhibitor/DMSO) treated wells.
Cancer cell lines were seeded at a 5×10^3 cells per well in a 96-well ultra-low adherence plates (Costar) and briefly spun down at 1000 rpm for 5 minutes. After 2 days, cells were treated with small molecule inhibitors at varying concentrations. Growth of spheroids was monitored using live cell imaging every 2-3 hours for 4-7 days in the Incucyte ZOOM™ system (Essen) or as end point assay using CellTiter-Glo™ luminescent cell viability assay (Promega).
In data set [4] the test system is Panc02.13 cells expressing vector only (02.13-WT). In words: Kinetic cell growth assay, Panc02.13 cells expressing vector only. The class given is cell-based, human. How it is done: (§1) Panc02.13 cells were used to express YAPS6A (or vector controls) under sparse and dense cultures. Expression was confirmed by confocal microscopy (data not shown). Suppression of the Hippo pathway by expression of non-phospho, active form of YAP (YAPS6A) sensitized pancreatic cancer cells to gemcitabine and 5-FU (FIGS. 6 and 7). Apoptosis was measured by immunobloting with cleaved caspases 3/7 or PARP. Blots were also stained with anti-β-actin for loading control. The effect of Hippo pathway suppression on gemcitabine and 5-FU senstitization was maintained in 3D spheroid culture (FIG. 8). The effects of eleven cytotoxic drugs on the growth of Panc02.13 cells expressing vector only or YAPS6A construct grown under low or high densities were determined (Table 1).
(§2) The effect of gemcitabine on pancreatic cancer cell growth was studied using a kinetic cell growth assay. Pancreatic cancer cells were plated on 96-well plates (Essen ImageLock, Essen Instruments, MI, US) at varying densities (2-4×10^3 for low density or 15-20×10^3 for high density experiments). Small molecule inhibitors at different doses were added 24 hours after plating and cell confluence was monitored with Incucyte Live-Cell Imaging System and software (Essen Instruments). Confluence was observed every hour for 48-144h or until the control (DMSO only) samples reached 100% confluence.
as §2, with “Kinetic Cell growth assay. The” for “The”, “(2-4X103” for “(2-4×10^3”, “15-20X103” for “15-20×10^3”, “Incucyte™” for “Incucyte”

The subject of data set [5] is Panc02.13 cells expressing YAPS6A construct. In words: Kinetic cell growth assay, Panc02.13 cells expressing YAPS6A. In kind it is cell-based, human. Particulars: YAPS6A construct. How it is done:
as §1, §2
Cell lines (Panc02.13, Panc10.05 or Miapaca2) were transfected with YAPS6A constructs (Addgene) using Lipofectamine™ (Invitrogen, Carlsbad, Calif.) following the manufacturer's instructions and 48 hour post-transfection selected in 5-10 μg/ml Blasticidin (InvivoGen, San Diego, Calif.). The clones screened for YAPS6A expression by Western blot. Stable cell lines were maintained in complete medium and 5 μg/ml Blasticidin.
as §2, with “Kinetic Cell growth assay. The” for “The”, “(2-4X103” for “(2-4×10^3”, “15-20X103” for “15-20×10^3”, “Incucyte™” for “Incucyte”

The subject of data set [6] is pancreatic cancer cell lines. Put plainly: Kinetic cell growth assay, panel of pancreatic cancer cell lines. In kind it is cell-based, human. How it is done:
as §2
FIG. 20A illustrates the kinetic cell growth assay to determine the effect of gemcitabine in a panel of pancreatic cancer cell lines. Cells are plated at low crowding conditions (10-25% confluence) and 24 hours later exposed to gemcitabine in a dose-dependent manner. They are imaged every 1-3 hours until control (vehicle) treated cells reach 100% confluence. This assay is not confounded by the fact that the time required for each cell line to reach 100% confluence may be very different (as the cell lines have different doubling times). A dose response effect of gemcitabine on cell growth for 16 pancreatic cancer cell lines is shown in FIGS. 20B, 3, 31A-31C and 28, where the range of previous studies is also shown. […] Similar responses to gemcitabine were found in liver cancer cell lines (Huh7 and FOCUS) and untransformed (HEK293) cell lines (FIGS. 3, 31A-31C).
as §2, with “Kinetic Cell growth assay. The” for “The”, “(2-4X103” for “(2-4×10^3”, “15-20X103” for “15-20×10^3”, “Incucyte™” for “Incucyte”

Data set [7] concerns patient-derived xenograft (PDX) models. In words: Patient-derived xenograft (PDX) models, tumor growth inhibition. In kind it is in vivo, mouse. Conditions: PDX models. An excerpt:
An alternative to an endogenous mouse models for capturing effects of the tumor environment are patient-derived xenograft (PDX) models. […] At the cellular level, PDX models also preserve the intra-tumoral heterogeneity, as well as the molecular characteristics of the original cancer, including copy number variants, single-nucleotide polymorphisms, and gene expression profiles (Choi et al., 2014; DeRose et al., 2011). […] When patient-derived xenograft PDX models were used to assess whether YAP activation sensitizes solid tumors to gemcitabine significant effects were found. The studies were performed in the following manner: Tumor fragments (around 64 mm^3) were implanted into the flanks of recipient mice and tumor dimensions recorded with digital calipers. Once tumor implants reached a volume of approximately 200 mm3, dosing with gemcitabine (or vehicle control) began. At the completion of the study completion, the percent tumor growth inhibition (% TGI) was calculated for gemcitabine (G) and the vehicle control (C) using initial (i) and final (f) tumor measurements by the formula: % TGI=[1−(Gf−Gi)/(Cf−Ci)]x100.
Patient-derived xenograft (PDX) models. PDX models were established by Champions Oncology (Baltimore, Md.) as described previously (Khor et al., 2015). Drug response to 20 PDX models was obtained from Champions TumorGraft® Database (available on the world wide web at database.championsoncology.com/).
Immunohistochemistry. Human primary tumor tissue slides were obtained from Champions Oncology (Baltimore, Md.). Immunohistochemistry using anti YAP1 antibody (Abcam Cat # ab52771) was performed as previously described (Shi et al., 1999). For negative controls, primary antibody was omitted. The intensity of YAP staining was assessed by an independent pathologist using a four-grade scale: “0” is negative. “0.5” is borderline staining with no significance. “1” is weak staining. “1.5” is weak staining with foci of moderate staining. “2” is moderate staining. […] YAP scoring index was calculated based on staining intensity * % of positive target cells.

Setting [8] is: Homo sapiens, high density, read-out: High density (EC50, nM) 02.13-WT.
Setting [9] is: Homo sapiens, low density, read-out: Low density (EC50, nM) 02.13-WT.
Where [10] appears, read: Homo sapiens, high density, read-out: High density (EC50, nM) 02.13-YAPS6A.
Setting [11] is: Homo sapiens, low density, read-out: Low density (EC50, nM) 02.13-YAPS6A.

Molecules are shown by their SMILES. Entries after “also recorded” stand apart in the source; their conditions may differ. Where two headings read alike, the source gives them in different places.

Regarding `COc1cccc2c1C(=O)c1c(O)c3c(c(O)c1C2=O)C[C@@](O)(C(=O)CO)C[C@@H]3O[C@H]1C[C@H](N)[C@@H](O)[C@H](C)O1` [epirubicin], the “Efficacy in inhibiting cell growth when the Hippo pathway was inhibited” value (“Efficacy … when the Hippo pathway was inhibited” for short) in data set [1] is recorded as “increased efficacy in inhibiting cell growth”. The “Substrate of ABCG2” value in data set [2] is given as “substrates of ABCG2”. Moreover, the “Efficacy in inhibiting cell growth when the Hippo pathway was not inhibited” value in data set [3] is on record as “efficacious in inhibiting cell growth”.

Take `COc1cccc2c1C(=O)c1c(O)c3c(c(O)c1C2=O)C[C@@](O)(C(C)=O)C[C@@H]3O[C@H]1C[C@H](N)[C@H](O)[C@H](C)O1` [daunorubicin]: the “Efficacy … when the Hippo pathway was inhibited” value in data set [1] is “increased efficacy in inhibiting cell growth”. The “Efficacy in inhibiting cell growth when the Hippo pathway was not inhibited” value in data set [3] was “efficacious in inhibiting cell growth”.

On to `COc1cccc2c1C(=O)c1c(O)c3c(c(O)c1C2=O)C[C@@](O)(C(=O)CO)C[C@@H]3O[C@H]1C[C@H](N)[C@H](O)[C@H](C)O1` [Doxorubicin], for which the EC50 (usually the concentration needed to bring the measured effect to its halfway point) in data set [4] (setting [8]) stood at 386 nM; in data set [4] (setting [9]), 35 nM; in data set [5] (setting [10]), 133 nM; in data set [5] (setting [11]), 68 nM. The “Dependence of cellular response on cell crowding” value in data set [6] (seven PDAC cell lines, threshold >100 fold difference in EC50) is reported as “dependent on cell crowding”. For the same compound, in data set [6] (seven pancreatic cancer cell lines, sparse and dense conditions), the “Density dependence of efficacy” value was “density-dependent”. The “Efficacy … when the Hippo pathway was inhibited” value in data set [1] was “increased efficacy in inhibiting cell growth”. In addition, in data set [3], the “Efficacy in inhibiting cell growth when the Hippo pathway was not inhibited” value is “efficacious in inhibiting cell growth”.

Regarding `CC[C@@]1(O)C(=O)OCc2c1cc1n(c2=O)Cc2cc3c(CN(C)C)c(O)ccc3nc2-1` [topotecan], in data set [1], the “Efficacy … when the Hippo pathway was inhibited” value was “increased efficacy in inhibiting cell growth”. In addition, in data set [2], the “Substrate of ABCG2” value is listed as “substrates of ABCG2”.

Regarding `N.N.O=C([O-])C1(C(=O)[O-])CCC1.[Pt+2]` [carboplatin], the “% TGI dependence on YAP activity” value in data set [7] is listed as “not affected by YAP activity”.

Regarding `Nc1nc(Cl)nc2c1ncn2[C@H]1C[C@H](O)[C@@H](CO)O1` [cladribine], in data set [1], the “Efficacy … when the Hippo pathway was inhibited” value is recorded as “increased efficacy in inhibiting cell growth; also recorded: particularly significant inhibitory activity”. Also, the “Substrate of ABCG2” value in data set [2] is given as “substrates of ABCG2”.

As for `CCCCC(=O)OCC(=O)[C@]1(O)Cc2c(O)c3c(c(O)c2[C@@H](O[C@H]2C[C@H](NC(=O)C(F)(F)F)[C@H](O)[C@H](C)O2)C1)C(=O)c1c(OC)cccc1C3=O` [valrubicin], in data set [1], the “Efficacy … when the Hippo pathway was inhibited” value was “increased efficacy in inhibiting cell growth”. Further, the “Efficacy in inhibiting cell growth when the Hippo pathway was not inhibited” value in data set [3] was “efficacious in inhibiting cell growth”.

On to `N.N.[Cl][Pt][Cl]` [Cisplatin], for which the 50% effective concentration (EC50) in data set [4] (high density, read-out: High density (EC50, nM) 02.13-WT) was greater than 10000 nM; in data set [4] (low density, read-out: Low density (EC50, nM) 02.13-WT), greater than 10000 nM; in data set [5] (high density, read-out: High density (EC50, nM) 02.13-YAPS6A), greater than 10000 nM; in data set [5] (low density, read-out: Low density (EC50, nM) 02.13-YAPS6A) it was greater than 10000 nM. Further, the “% TGI dependence on YAP activity” value in data set [7] is listed as “not affected by YAP activity”.

As for `COc1cc([C@@H]2c3cc4c(cc3[C@@H](O[C@@H]3O[C@@H]5CO[C@@H](C)O[C@H]5[C@H](O)[C@H]3O)[C@H]3COC(=O)[C@H]23)OCO4)cc(OC)c1O` [Etoposide], the concentration giving a half-maximal response (EC50) in data set [4] (setting [8]) is 2600 nM; in data set [4] (setting [9]), 386 nM; in data set [5] (setting [10]), 942 nM; in data set [5] (setting [11]) it was 383 nM. The “Efficacy … when the Hippo pathway was inhibited” value is “particularly significant inhibitory activity” in data set [1] and “increased efficacy in inhibiting cell growth” in data set [1] (listed as etopiside). Besides, in data set [2], the “Substrate of ABCG2” value is recorded as “substrates of ABCG2”.

Turning to `O=C1c2c(O)ccc(O)c2C(=O)c2c(NCCNCCO)ccc(NCCNCCO)c21` [mitoxantrone], the “Efficacy … when the Hippo pathway was inhibited” value in data set [1] is listed as “increased efficacy in inhibiting cell growth; also recorded: particularly significant inhibitory activity”. In addition, the “Substrate of ABCG2” value in data set [2] is “substrates of ABCG2”.

For `COc1cc([C@@H]2c3cc4c(cc3[C@@H](O[C@@H]3O[C@@H]5CO[C@@H](c6cccs6)O[C@H]5[C@H](O)[C@H]3O)[C@H]3COC(=O)[C@H]23)OCO4)cc(OC)c1O` [teniposide], the “Efficacy … when the Hippo pathway was inhibited” value in data set [1] is “increased efficacy in inhibiting cell growth; also recorded: particularly significant inhibitory activity”. For the same compound, in data set [2], the “Substrate of ABCG2” value is “substrates of ABCG2”.

For `CN(Cc1cnc2nc(N)nc(N)c2n1)c1ccc(C(=O)N[C@@H](CCC(=O)O)C(=O)O)cc1` [methotrexate], the “Efficacy … when the Hippo pathway was inhibited” value in data set [1] was “increased efficacy in inhibiting cell growth; also recorded: particularly significant inhibitory activity”. Further, the “Substrate of ABCG2” value in data set [2] is recorded as “substrates of ABCG2”.

The record behind these values is US20200216906A1, “METHODS AND COMPOSITIONS RELATING TO THE DIAGNOSIS AND TREATMENT OF CANCER” (PRESIDENT AND FELLOWS OF HARVARD COLLEGE, priority 2015, published 2020).
